2 substances from patent publication US8865672B2, “Prevention of tissue ischemia and related methods” (The United States of America, as represented by the …, priority 2006, dated 2014) can be followed below.

For data set [1], the system named is full thickness skin grafts in mice. In words: Full thickness skin graft (FTSG) model. The format is in vivo, mouse. As to conditions: for FTSG survival: wild type FTSG and wound beds infiltrated at grafting. The method, then: Wild type, TSP1 null, CD47 null and CD36 null mice were matched for sex and age. Anesthesia was induced by and maintained with inhalation isoflurane. Body temperature was maintained at 37° C. with a heating pad during the procedure. The dorsal surface was clipped of hair and depilated with Nair®. The skin was then cleansed with surgical soap and alcohol and the animals draped. Using sterile technique, a 1×1 cm FTSG incorporating the panniculus carnosus, subcutaneous tissues and skin were raised. Graft dimensions were marked on the animal skin surface with the aid of a template to insure consistency in dimension. Grafts were in the midline of the animal and secured with four interrupted 5-0 nylon sutures. Sutures were so placed as to include the fascia of the dorsal musculature to provide increased immobilization of grafts to the underlying wound bed Animals were awakened and returned to individual cages and allowed ad libitum access to food and water. Trauma to FTSG was not encountered during the post-operative interval since grafts were located in the dorsal midline over the mid thoracic area and each animal was housed individually following surgery. On postoperative day three or seven, the animals were again anesthetized with inhalation isoflurane and skin graft survival evaluated.
The groups of animals utilized and the treatments received as indicated either at the time of skin grafting and/or during the post-operative interval are summarized in FIG. 21. Animals treated with ISDN (1 mg/ml) or L-NAME (0.5 mg/ml) had ad libitum access to drinking water containing the given concentrations of agents during the post-operative interval. Animals treated with a CD47 monoclonal antibody (Ab clone 301) or an isotype matched control antibody (Ig2α) underwent injection of 40 μg delivered as 10 μl of a 4 mg/ml stock in 100 μl of PBS with equal volumes injected between the wound bed and graft prior to suturing the graft in place. Animals treated with a CD47 morpholino oligonucleotide underwent injection of the FTSG and wound bed with 10 μmol/L in 250 μl of PBS with 125 μl volumes injected in the graft and wound bed, respectively prior to suturing the graft in place.
The necrotic areas of the FTSG were determined by color, refill, eschar, and the pin-prick test. The outlines of viable and nonviable areas were traced using transparent film, and the area of necrosis cut from the template and the area of skin graft necrosis versus total skin graft area determined by comparison of the original template weight to the weight of the cut template utilizing the method described by Ueda (Ueda et al., J Surg Res 80(2):200-204, 1998). Skin graft survival area was presented as the ration of graft survival on post-operative day three or seven divided by the original graft area multiplied by 100%. Additionally, digital images were then acquired using an Olympus C5500 digital camera at a fixed distance (20 cm perpendicular to the animal) under standard room lighting with autoflash and macro settings engaged and uploaded for image analysis of tissue survival with a standard software program (Image-Pro Plus, Media Cybernetics, Inc., Silver Spring, Md.). […]
Skin graft wound beds were assessed at indicated time points (72 hours or 7 days post-operatively) for visible alterations in vascularity under 5× magnification. […] Visible vessels without ramifications and branches were counted once. […]

Data set [2] has as its system ischemic hindlimbs in mice. Kind of data set: Hindlimb ischemia model. The conditions noted are these: ischemic wild type hindlimbs; for hindlimb tissue necrosis: morpholino 10 μM to thigh musculature. The format is in vivo, mouse. The method, then:
Wild type C57BL6, TSP1 null, CD47 null and CD36 null mice, age and sex matched, underwent ligation of the left external iliac and common femoral arteries. The right limb served as control. All animals underwent examination every 24 h to assess clinical ischemia based on a previously published index (Paek et al., J Vasc Surg. 36:172-179, 2002). At the end of 3 or 7 days animals were euthanized, and the tibialis anterior muscles from the right and left limbs were harvested, weighed and processed for mitochondrial viability.
Mitochondrial viability of hindlimb muscle biopsies was assessed by the reduction of a tetrazolium salt to water insoluble formazan through mitochondrial oxidation as described (Bonheur et al., J Surg Res. 116:55-63, 2004). Tibialis anterior muscle biopsies were weighed and incubated in 3 ml of PBS supplemented 1:10 with 3-(4,5-dimethylthiazol-2-yl)-2,5 diphenyl tetrazolium stock (MTT, Promega, Madison, Wis.) for 3 h in the dark at 37° C., washed with distilled water and blotted dry. The formazan salt was extracted in 3 ml of 2-propranol for 6 hours in the dark at 37° C. Absorbance for 200 μl aliquots was determined at 425 nm on a microplate reader. Muscle samples were dried at 90° C. and weighed again. Results were expressed as absorbance normalized to dry tissue weight.

Data set [3] has as its system random dorsal cutaneous flaps in white hairless Yucatan miniature pigs. Kind of data set: Porcine random cutaneous flap model. The format is in vivo, pig. As to conditions: for flap necrosis: 2×10 cm flaps, injection at surgery. The method, then:
Animals underwent shaving of the dorsal surface hair and cleansing of the skin with soap and alcohol. Random dorsal cutaneous flaps 2×10×0.5 cm were elevated and immediately sutured in place with interrupted 4-0 nylon suture (Ethicon, Johnson & Johnson, N.J.). Treated flaps were injected with the indicated amounts of drug in sterile normal saline. On the 3 and 7 post-operative days tissue survival was determined and flaps excised for histology. In some instances animals received intravenous fluorescein prior to euthanasia and flap perfusion assessed under ultra violet illumination.
Clinical assessment of flap perfusion was performed with notation of color, capillary refill and bleeding to needle stick being recorded. Flap dimensions were then traced onto a clear plastic sheet and with demarcation of viable and non-viable areas made.
The internal jugular vein and common carotid arteries were cannulated and the animals perfused with a volume of 5 L heparinized (50 U/mL) normal saline heated to 50° C. A mixture of India ink and gelatin (5%) heated to 50° C. (1 L) was administered by gently pressing and then releasing the plunger of the syringe to simulate the arterial pulse. The flaps were excised and placed in 100% glycerin and stored at 4° C. for 10 days. During this time flap tissue became thin, desiccated and transparent and allowed visualization of the vascular architecture under direct transillumination.

Take “CGTCACAGGCAGGACCCACTGCCCA (all phosphorodiamidate morpholino (PMO)) [CD47 morpholino]”: in data set [1] (mouse, in vivo), the “H & E histology of treated wild type FTSG” value is given as “essentially normal tissue architecture without evidence of necrosis”. In data set [1], this substance came in with an FTSG survival of 79±5%. In addition, the “wound bed vascular index” value in data set [1] (wild type wound beds) is on record as “substantial increases in visible vasculature”. Moreover, in data set [2], the muscle mitochondrial viability result is “increased muscle mitochondrial viability” and the hindlimb tissue necrosis result was “essentially no tissue necrosis”. Besides, the flap necrosis in data set [3] is 12±3%. Also, the flap tissue survival entry in data set [3] (compared to untreated flaps) is on record as “significantly more tissue survival”.
Take “CGTgACAGcCAcGACCgACTGCgCA (antisense CGTGACAGCCACGACCGACTGCGCA; all phosphorodiamidate morpholino (PMO)) [control morpholino, reference compound]”: the FTSG survival result in data set [1] is “significant graft necrosis and loss”. For the same substance, in data set [2], the hindlimb tissue necrosis result is reported as “did not protect”. In data set [3], the flap necrosis is given as 34±6%. For the same substance, the “India ink staining of flap vessels” value in data set [3] (post-operative day 3) is “lack of India ink staining of vessels”.
